Measurements taken from PubChem BioAssay (NCI).
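Cells were grown in 96-well plates and exposed to each compound for 48 hours at five concentrations; endpoints were interpolated linearly between bracketing concentrations, or set to the highest concentration if not reached. GI50: concentration for 50% inhibition of growth. TGI marks complete inhibition of growth.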

Assays:
Assay in all cases: NCI anticancer screen, dose series, 48 h
SF-295 CNS = system: SF-295 CNS
A498 renal = system: A498 renal
RPMI-8226 leukemia = system: RPMI-8226 leukemia
HL-60(TB) leukemia = system: HL-60(TB) leukemia
UO-31 renal = system: UO-31 renal
BT-549 breast = system: BT-549 breast
HOP-92 NSCLC = system: HOP-92 NSCLC
SK-MEL-5 melanoma = system: SK-MEL-5 melanoma
PC-3 prostate = system: PC-3 prostate
SF-268 CNS = system: SF-268 CNS
SN12C renal = system: SN12C renal
SNB-19 CNS = system: SNB-19 CNS
COLO 205 colon = system: COLO 205 colon
SK-MEL-28 melanoma = system: SK-MEL-28 melanoma
TK-10 renal = system: TK-10 renal
HT29 colon = system: HT29 colon
SW-620 colon = system: SW-620 colon
K-562 leukemia = system: K-562 leukemia
OVCAR-5 ovarian = system: OVCAR-5 ovarian
NCI/ADR-RES ovarian = system: NCI/ADR-RES ovarian
SNB-75 CNS = system: SNB-75 CNS
A549 NSCLC = system: A549 NSCLC
EKVX NSCLC = system: EKVX NSCLC
UACC-257 melanoma = system: UACC-257 melanoma
HOP-62 NSCLC = system: HOP-62 NSCLC
UACC-62 melanoma = system: UACC-62 melanoma
DU-145 prostate = system: DU-145 prostate
HS 578T breast = system: HS 578T breast
OVCAR-4 ovarian = system: OVCAR-4 ovarian
ACHN renal = system: ACHN renal
M14 melanoma = system: M14 melanoma
NCI-H460 lung = system: NCI-H460 lung
MCF7 breast = system: MCF7 breast
HCC-2998 colon = system: HCC-2998 colon
NCI-H226 lung = system: NCI-H226 lung
NCI-H522 lung = system: NCI-H522 lung
MDA-MB-231 breast = system: MDA-MB-231 breast
SK-MEL-2 melanoma = system: SK-MEL-2 melanoma
LOX IMVI melanoma = system: LOX IMVI melanoma
MOLT-4 leukemia = system: MOLT-4 leukemia
NCI-H23 lung = system: NCI-H23 lung
RXF 393 renal = system: RXF 393 renal
MALME-3M melanoma = system: MALME-3M melanoma
HCT-15 colon = system: HCT-15 colon
SF-539 CNS = system: SF-539 CNS
OVCAR-8 ovarian = system: OVCAR-8 ovarian
T-47D breast = system: T-47D breast
SR leukemia = system: SR leukemia
CCRF-CEM leukemia = system: CCRF-CEM leukemia
CAKI-1 renal = system: CAKI-1 renal
SK-OV-3 ovarian = system: SK-OV-3 ovarian
HCT-116 colon = system: HCT-116 colon
786-0 renal = system: 786-0 renal
IGROV1 ovarian = system: IGROV1 ovarian
OVCAR-3 ovarian = system: OVCAR-3 ovarian
U251 CNS = system: U251 CNS
KM12 colon = system: KM12 colon

COc1ccc([C@H]2[C@H](O)C(=O)N2c2cc(OC)c(OC)c(OC)c2)cc1O
GI50 (SF-295 CNS): 33.7 nM | TGI (SF-295 CNS): > 100000 nM | GI50 (A498 renal): > 100000 nM | TGI (A498 renal): > 100000 nM | GI50 (RPMI-8226 leukemia): < 21.4 nM | TGI (RPMI-8226 leukemia): > 100000 nM | GI50 (HL-60(TB) leukemia): < 13.6 nM | GI50 (UO-31 renal): 50.3 nM | TGI (UO-31 renal): > 100000 nM | GI50 (BT-549 breast): < 15.1 nM | TGI (BT-549 breast): 211 nM | GI50 (HOP-92 NSCLC): 43.8 nM | TGI (HOP-92 NSCLC): > 100000 nM | GI50 (SK-MEL-5 melanoma): < 15.5 nM | TGI (SK-MEL-5 melanoma): 59.4 nM | GI50 (PC-3 prostate): < 19 nM | TGI (PC-3 prostate): > 100000 nM | GI50 (SF-268 CNS): 30.6 nM | TGI (SF-268 CNS): > 100000 nM | GI50 (SN12C renal): < 16.9 nM | TGI (SN12C renal): > 100000 nM | GI50 (SNB-19 CNS): 48.5 nM | TGI (SNB-19 CNS): > 100000 nM | GI50 (COLO 205 colon): 238 nM | TGI (COLO 205 colon): 1210 nM | GI50 (SK-MEL-28 melanoma): 55.1 nM | TGI (SK-MEL-28 melanoma): > 100000 nM | GI50 (TK-10 renal): > 100000 nM | TGI (TK-10 renal): > 100000 nM | GI50 (HT29 colon): 202 nM | TGI (HT29 colon): 1760 nM | GI50 (SW-620 colon): < 18.2 nM | TGI (SW-620 colon): > 100000 nM | GI50 (K-562 leukemia): < 15.8 nM | TGI (K-562 leukemia): > 100000 nM | GI50 (OVCAR-5 ovarian): 37.7 nM | TGI (OVCAR-5 ovarian): > 100000 nM | GI50 (NCI/ADR-RES ovarian): 33.3 nM | TGI (NCI/ADR-RES ovarian): > 100000 nM | GI50 (SNB-75 CNS): 28.2 nM | TGI (SNB-75 CNS): > 100000 nM | GI50 (A549 NSCLC): 32.1 nM | TGI (A549 NSCLC): > 100000 nM | TGI (EKVX NSCLC): > 100000 nM | TGI (UACC-257 melanoma): > 100000 nM | GI50 (HOP-62 NSCLC): < 22.4 nM | TGI (HOP-62 NSCLC): > 100000 nM | GI50 (UACC-62 melanoma): < 23.2 nM | TGI (UACC-62 melanoma): > 100000 nM | GI50 (DU-145 prostate): < 19.6 nM | TGI (DU-145 prostate): > 100000 nM | GI50 (HS 578T breast): 20 nM | TGI (HS 578T breast): > 100000 nM | GI50 (OVCAR-4 ovarian): 4780 nM | TGI (OVCAR-4 ovarian): > 100000 nM | GI50 (ACHN renal): < 18.1 nM | TGI (ACHN renal): > 100000 nM | GI50 (M14 melanoma): < 16.3 nM | TGI (M14 melanoma): > 100000 nM | GI50 (NCI-H460 lung): < 18.3 nM | TGI (NCI-H460 lung): > 100000 nM | GI50 (MCF7 breast): < 10 nM | TGI (MCF7 breast): > 100000 nM | GI50 (HCC-2998 colon): 39.1 nM | TGI (HCC-2998 colon): > 100000 nM | GI50 (NCI-H226 lung): < 10 nM | TGI (NCI-H226 lung): 2270 nM | GI50 (NCI-H522 lung): < 10 nM | TGI (NCI-H522 lung): < 14 nM | GI50 (MDA-MB-231 breast): < 17.8 nM | TGI (MDA-MB-231 breast): > 100000 nM | GI50 (SK-MEL-2 melanoma): 40 nM | TGI (SK-MEL-2 melanoma): > 100000 nM | GI50 (LOX IMVI melanoma): < 10 nM | TGI (LOX IMVI melanoma): > 100000 nM | GI50 (MOLT-4 leukemia): < 19.2 nM | TGI (MOLT-4 leukemia): > 100000 nM | GI50 (NCI-H23 lung): 37.9 nM | TGI (NCI-H23 lung): > 100000 nM | GI50 (RXF 393 renal): 60.2 nM | TGI (RXF 393 renal): > 100000 nM | GI50 (MALME-3M melanoma): < 28.4 nM | TGI (MALME-3M melanoma): > 100000 nM | GI50 (HCT-15 colon): 22.7 nM | TGI (HCT-15 colon): > 100000 nM | GI50 (SF-539 CNS): < 10 nM | TGI (SF-539 CNS): 43.6 nM | GI50 (OVCAR-8 ovarian): < 16.3 nM | GI50 (T-47D breast): > 100000 nM | TGI (T-47D breast): > 100000 nM | GI50 (SR leukemia): < 12.4 nM | TGI (SR leukemia): > 100000 nM | GI50 (CCRF-CEM leukemia): < 16.7 nM | TGI (CCRF-CEM leukemia): > 100000 nM | GI50 (CAKI-1 renal): < 15.3 nM | TGI (CAKI-1 renal): > 100000 nM | GI50 (SK-OV-3 ovarian): 33.2 nM | TGI (SK-OV-3 ovarian): > 100000 nM | GI50 (HCT-116 colon): < 10 nM | TGI (HCT-116 colon): > 100000 nM | GI50 (786-0 renal): < 20.8 nM | TGI (786-0 renal): > 100000 nM | GI50 (IGROV1 ovarian): < 20.6 nM | TGI (IGROV1 ovarian): > 100000 nM | GI50 (OVCAR-3 ovarian): < 18 nM | GI50 (U251 CNS): 21.7 nM | TGI (U251 CNS): > 100000 nM | GI50 (KM12 colon): < 15.3 nM | TGI (KM12 colon): > 100000 nM
